The results in this text go back to patent US20090220435A1, “TIGHT JUNCTION MODULATING PEPTIDE COMPONENTS FOR ENHANCING MUCOSAL DELIVERY OF THERAPEUTIC AGENTS” (priority 2005, published 2009).

The test system of series [1] is EpiAirway™ human-derived tracheal/bronchial epithelial cells. In words: Cytotoxicity (LDH assay). The series is classed as cell-based. Particulars: for LDH15: 15 minute treatment at the peptide's optimal concentration; for LDH60: 60 minute treatment at the peptide's optimal concentration. The protocol: The amount of cell death was assayed by measuring the loss of lactate dehydrogenase (LDH) from the cells using a CytoTox 96 Cytoxicity Assay Kit (Promega Corp., Madison, Wis.). Fifty microliters of sample was loaded into a 96-well assay plates. Fresh, cell-free culture medium was used as a blank. 50 μl of substrate solution was added to each well and the plates incubated for 30 minutes at room temperature in the dark. Following incubation, 50 μl of stop solution was added to each well and the plates read on an optical density plate reader at 490 nm.
The amount of cell death will be assayed by measuring the loss of lactate dehydrogenase (LDH) from the cells using a CytoTox 96 Cytotoxicity Assay Kit (Promega Corp., Madison, Wis.). Fifty microliters of sample will be loaded into a 96-well assay plates. Fresh, cell-free culture medium will be used as a blank. Fifty microliters of substrate solution will be added to each well and the plates incubated for 30 minutes at room temperature in the dark. Following incubation, 50 μl of stop solution will be added to each well and the plates read on an optical density plate reader at 490 nm. The measurement of LDH release into the basolateral media indicates relative cytotoxicity of the samples. One hundred percent lysis of control inserts with 0.3% Octylphenolpoly(ethyleneglycolether)×(TritonX-100) allows LDH values to be expressed as percentage of total lysis.
In some embodiments, The amount of cell death was assayed by measuring the release of lactate dehydrogenase (LDH) from the cells into the apical medium using a CytoTox 96 Cytotoxicity Assay Kit (Promega Corp., Madison, Wis.). One percent Octylphenolpoly (ethyleneglycolether)×(Triton X-100™) diluted in phosphate buffered saline (PBS) causes 100% lysis in cultured cells and served herein as a positive control for the LDH assay. Following the one hour incubation period with a test formulation (refer to Table 24 of Example 25 for details of test formulations), the total liquid volume of each insert was brought to a final volume of 200 μl with culture medium. The apical medium was then mixed by pipetting four times with a multichannel pipette set to a 100 μl volume. After mixing, a 100 μl sample from the apical side of each insert was transferred to a new 96-well plate. The apical media samples were sealed with a plate sealer and stored at room temperature for same day analysis or stored overnight at 4° C. for analysis the next day. To measure LDH levels, 5 μl of the 100 μl apical media sample was diluted in 45 μl DPBS in a new 96-well plate. Fresh, cell-free culture medium will be used as a blank. Fifty microliters of substrate solution was added to each well and incubated for 30 minutes at room temperature away from direct light. Following the 30 minute incubation, 50 μl of stop solution was added to each well. Optical density (OD) was measured at 490 nm with a uQuant absorbance plate reader from Biotek Instruments. The measurement of LDH release into the apical media indicates relative cytotoxicity of the samples. Percent cytotoxicity for each test formulation was calculated by subtracting the measured absorbance of the PBS control (basal level of LDH release) from the measured absorbance of the individual test formulation and then dividing that value by the measured absorbance for the 1% Triton X-100™ positive control, multiplied by 100.
An LDH assay was used to assess the cytotoxicity of the treatments. The LDH level was determined by CytoTox96 Non-Radioactive Cytotoxic Assay (Promega, Madison, Wis.) following the manufacturer's protocol. For basal-lateral LDH levels, triplicates of 50 ul of the basal medium were used to determine the LDH level. For apical LDH level, 150 ul of the diluted apical sample was removed by adding 150 ul of Epi-CM to the apical chamber, the medium was mixed by pipeting up and down, and 150 ul medium was removed and diluted 2× (for a final 8-fold dilution) for assay in triplicates of 50 ul.

Series [2] can be described thus: Chemical stability of PN159 (stability indicating HPLC). Type of series: physicochemical. Particulars: pH 9 and/or elevated temperature, 40 to 50° C. The protocol:
The chemical stability of the PN159 was determined under therapeutically relevant storage conditions. A stability indicating HPLC method was employed. Solutions (50 mM) were stored at various pH (4.0, 7.3, and 9.0) and temperature (5° C., 25° C., 35° C., 40° C., and 50° C.) conditions. Samples at pH 4 contained 10 mM citrate buffer. Samples at pH 7.3 and 9.0 contained 10 mM phosphate buffer. Representative storage stability data (including the Arrhenius plot) are depicted in FIG. 6. […] For example, at 5° C. and pH 4.0 or pH7.3, there was essentially 100% recovery of PN159 for six month storage. […] The pH range of 4.0 to 7.3 and the temperature range of refrigerated to ambient are most relevant for intranasal formulations.
The chemical stability of the PN159 was determined under therapeutically relevant storage conditions. A stability indicating HPLC method was employed. Solutions (50 mM) were stored at various pH (4.0, 7.3, and 9.0) and temperature (5° C., 25° C., 35° C., 40° C., and 50° C.) conditions. Samples at pH 4 contained 10 mM citrate buffer. Samples at pH 7.3 and 9.0 contained 10 mM phosphate buffer. […] For example, at 5° C. and pH 4.0 or pH 7.3, there was essentially 100% recovery of PN159 for six month storage. […]
The chemical stability of the PN159 was determined under therapeutically relevant storage conditions. […]

The subject of series [3] is EpiAirway™ human-derived tracheal/bronchial epithelial cells. In words: Transepithelial electrical resistance (TER) across EpiAirway epithelial cell layer. Type of series: cell-based.
Series [4] has the same test system. In words: TER recovery after peptide treatment. The series is classed as cell-based. As to conditions: among all TJMPs tested.

Regarding `CC(C)C[C@H](NC(=O)[C@H](C)NC(=O)[C@H](CCCCN)NC(=O)[C@H](CC(C)C)NC(=O)[C@H](C)NC(=O)[C@H](CC(C)C)NC(=O)[C@H](CCCCN)NC(=O)[C@H](CC(C)C)NC(=O)[C@H](C)NC(=O)[C@H](CC(C)C)NC(=O)[C@@H](N)CCCCN)C(=O)N[C@@H](CCCCN)C(=O)N[C@@H](C)C(=O)N[C@@H](C)C(=O)N[C@@H](CC(C)C)C(=O)N[C@@H](CCCCN)C(=O)N[C@@H](CC(C)C)C(=O)N[C@@H](C)C(N)=O` [PN159], the “% Triton-X LDH Release” value in series [1] (25 μM, 1 h) stood at 31%. In addition, in series [1] (25-100 μM PN159 with 2 mg/ml PTH), the “cytotoxicity (LDH)” value is “no significant cytotoxicity”. In series [1], this molecule came in with an LDH15 of 0.007. In series [1], the LDH60 stood at 0.002. Moreover, the chemical stability result in series [2] is reported as “rapid deterioration”. Besides, the TER reduction was 54% in series [3] (1 μM peptide); 79% in series [3] (2.5 μM peptide); 89% in series [3] (10 μM peptide); 94% in series [3] (25 μM peptide); “more than 80%” in series [3] (PN159 25, 50, 100 μM with 2 mg/ml PTH, pH 4.5). Further, the “% T0 TER” value in series [3] (25 μM, 1 h, pH 7) turned out to be 7%. In series [3] (40 mg/ml galantamine lactate, 25, 50, 100 μM PN159, pH 5.0), the “TER in the presence of galantamine” value was “reduced TER”. Further, the “Relative TER Decrease” value in series [3] (relative to PN159 = 1.0) is given as 1.0.

In turn, `CC[C@H](C)[C@H](NC(=O)[C@H](CCCCN)NC(=O)[C@H](CCCCN)NC(=O)[C@H](C)NC(=O)[C@H](CC(C)C)NC(=O)[C@H](C)NC(=O)[C@H](C)NC(=O)[C@H](CC(C)C)NC(=O)[C@H](C)NC(=O)[C@H](CCCCN)NC(=O)[C@H](CC(C)C)NC(=O)[C@H](CC(N)=O)NC(=O)[C@@H](NC(=O)[C@H](CCCCN)NC(=O)CNC(=O)[C@H](CC(C)C)NC(=O)[C@H](CC(C)C)NC(=O)[C@H](Cc1ccc(O)cc1)NC(=O)CNC(=O)[C@H](C)NC(=O)[C@H](CO)NC(=O)[C@H](CC(N)=O)NC(=O)[C@H](CC(C)C)NC(=O)[C@@H](NC(=O)[C@H](Cc1c[nH]c2ccccc12)NC(=O)CN)[C@@H](C)O)[C@@H](C)CC)C(=O)N[C@@H](CC(C)C)C(N)=O` [PN161] yielded an LDH15 in series [1] of 0.0017. This molecule also showed an LDH60 in series [1] of 0.01. Besides, the TER reduction is reported as 11% in series [3] (2.5 μM peptide), 43% in series [3] (10 μM peptide), 73% in series [3] (25 μM peptide) and 84% in series [3] (100 μM peptide). For the same molecule, the TER recovery time entry in series [4] was “fastest recovery time”.

Molecule “H-LLETLLKPFQCRICMRNFSTRQARRNHRRRHRR-NH2 (cysteine pairing not given here) [PN202]” registered an LDH15 in series [1] of 0.0011. In series [1], the LDH60 is reported as 0.02. The TER reduction in series [3] (10 μM peptide) is recorded as 3%; in series [3] (50 μM peptide), 57%; in series [3] (100 μM peptide), 95%; in series [3] (500 μM peptide), 95%. In addition, the TER recovery time entry in series [4] is listed as “fastest recovery time”.

“H-RRRQRRKRGGDIMGEWGNEIFGAIAGFLG-NH2 [PN250]” gave an LDH15 in series [1] of 0.0016. Also, the LDH60 in series [1] was found to be 0.031. For the same molecule, the TER reduction in series [3] (10 μM peptide) is 3%; in series [3] (25 μM peptide), 17%; in series [3] (100 μM peptide), 58%; in series [3] (250 μM peptide), 79%; in series [3] (500 μM peptide) it was 84%. Further, the TER recovery time result in series [4] is “fastest recovery time”.
